{"source": "ChEMBL document CHEMBL1201862", "about": "“PubChem BioAssay data set” (2004)", "key": {"Genome polyprotein": {"target": "Genome polyprotein (dengue virus type 2, UniProt P29990)", "sequence (P29990 2492-3391 limits assumed)": "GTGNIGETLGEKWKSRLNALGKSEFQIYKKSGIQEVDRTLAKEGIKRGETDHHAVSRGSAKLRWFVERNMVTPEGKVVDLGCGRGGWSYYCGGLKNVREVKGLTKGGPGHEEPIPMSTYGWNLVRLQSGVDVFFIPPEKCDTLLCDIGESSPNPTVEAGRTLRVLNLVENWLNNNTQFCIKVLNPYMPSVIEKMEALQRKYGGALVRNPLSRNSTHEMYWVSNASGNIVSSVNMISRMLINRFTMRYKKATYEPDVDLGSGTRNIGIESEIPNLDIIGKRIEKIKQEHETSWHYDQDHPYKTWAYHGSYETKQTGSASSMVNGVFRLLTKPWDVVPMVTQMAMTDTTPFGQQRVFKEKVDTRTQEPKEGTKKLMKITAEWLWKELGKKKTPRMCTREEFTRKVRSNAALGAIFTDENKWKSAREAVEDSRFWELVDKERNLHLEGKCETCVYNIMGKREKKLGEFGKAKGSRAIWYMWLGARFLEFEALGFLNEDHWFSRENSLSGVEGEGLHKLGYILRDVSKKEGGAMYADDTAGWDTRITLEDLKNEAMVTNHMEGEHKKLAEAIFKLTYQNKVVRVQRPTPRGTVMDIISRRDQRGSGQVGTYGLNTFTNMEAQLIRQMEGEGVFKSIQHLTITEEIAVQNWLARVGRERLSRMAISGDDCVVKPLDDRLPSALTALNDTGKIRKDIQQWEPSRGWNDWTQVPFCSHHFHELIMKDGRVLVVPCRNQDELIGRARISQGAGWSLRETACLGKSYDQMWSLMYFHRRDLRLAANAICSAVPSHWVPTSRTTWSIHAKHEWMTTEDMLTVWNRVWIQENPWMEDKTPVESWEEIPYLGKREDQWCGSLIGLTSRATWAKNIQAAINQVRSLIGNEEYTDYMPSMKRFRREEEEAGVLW", "assay": "Dengue-2 NS5 methyltransferase inhibitors, primary screen, biochemical, confirmation dose response (AID 588689)", "format": "functional"}, "[1]": {"target": "1-phosphatidylinositol 4,5-bisphosphate phosphodiesterase beta-3 (Homo sapiens, UniProt Q01970)", "assay": "Fluorescence-based biochemical high throughput dose response assay to identify inhibitors of phospholipase C isozymes (PLC-B3)."}, "[2]": {"target": "T1, Long-chain-fatty-acid--AMP ligase FadD28 (Mycobacterium tuberculosis, UniProt P9WQ59)", "T1 sequence (P9WQ59 whole entry)": "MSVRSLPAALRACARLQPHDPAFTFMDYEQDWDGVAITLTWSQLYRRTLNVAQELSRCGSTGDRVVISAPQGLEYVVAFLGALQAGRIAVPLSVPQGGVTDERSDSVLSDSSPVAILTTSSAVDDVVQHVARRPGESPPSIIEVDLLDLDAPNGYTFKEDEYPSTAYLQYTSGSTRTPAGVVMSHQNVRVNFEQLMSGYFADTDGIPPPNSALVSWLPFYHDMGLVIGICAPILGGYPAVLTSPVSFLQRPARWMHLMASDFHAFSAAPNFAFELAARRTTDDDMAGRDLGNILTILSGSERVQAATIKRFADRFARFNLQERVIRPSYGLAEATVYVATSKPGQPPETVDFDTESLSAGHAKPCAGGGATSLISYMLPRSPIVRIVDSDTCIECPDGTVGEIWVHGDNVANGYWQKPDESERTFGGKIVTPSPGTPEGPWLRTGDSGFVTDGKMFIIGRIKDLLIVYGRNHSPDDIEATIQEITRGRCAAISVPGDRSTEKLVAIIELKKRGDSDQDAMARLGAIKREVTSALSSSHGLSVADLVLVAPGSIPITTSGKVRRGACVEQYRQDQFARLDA", "assay": "Fluorescence polarization aasay to screen for inhibitors that compete for the binding of FadD28 to a bisubstrate Measured in Biochemical System Using Plate Reader - 2147-01_Inhibitor_Dose_CherryPick_Activity.", "format": "functional, Mycobacterium tuberculosis H37Rv"}, "[3]": {"target": "Proto-oncogene tyrosine-protein kinase Src (Homo sapiens, UniProt P12931)", "sequence (P12931 2-536 limits assumed)": "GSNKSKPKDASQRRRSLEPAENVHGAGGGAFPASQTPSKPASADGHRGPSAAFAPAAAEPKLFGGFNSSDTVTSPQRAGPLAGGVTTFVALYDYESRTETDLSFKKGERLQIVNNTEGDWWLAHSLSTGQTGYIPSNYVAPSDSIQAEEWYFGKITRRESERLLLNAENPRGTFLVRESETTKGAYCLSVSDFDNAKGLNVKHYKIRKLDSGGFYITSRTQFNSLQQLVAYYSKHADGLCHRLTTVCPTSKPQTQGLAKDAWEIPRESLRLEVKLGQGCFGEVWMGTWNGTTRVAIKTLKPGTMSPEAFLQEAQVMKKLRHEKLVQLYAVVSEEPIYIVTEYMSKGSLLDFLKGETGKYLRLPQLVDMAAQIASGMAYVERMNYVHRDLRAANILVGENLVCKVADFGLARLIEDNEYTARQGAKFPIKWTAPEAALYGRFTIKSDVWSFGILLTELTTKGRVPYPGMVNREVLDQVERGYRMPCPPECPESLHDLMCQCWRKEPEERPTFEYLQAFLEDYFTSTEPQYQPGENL", "format": "functional"}, "[4]": {"target": "Mitogen-activated protein kinase 1 (Homo sapiens, UniProt P28482)", "sequence (P28482 whole entry)": "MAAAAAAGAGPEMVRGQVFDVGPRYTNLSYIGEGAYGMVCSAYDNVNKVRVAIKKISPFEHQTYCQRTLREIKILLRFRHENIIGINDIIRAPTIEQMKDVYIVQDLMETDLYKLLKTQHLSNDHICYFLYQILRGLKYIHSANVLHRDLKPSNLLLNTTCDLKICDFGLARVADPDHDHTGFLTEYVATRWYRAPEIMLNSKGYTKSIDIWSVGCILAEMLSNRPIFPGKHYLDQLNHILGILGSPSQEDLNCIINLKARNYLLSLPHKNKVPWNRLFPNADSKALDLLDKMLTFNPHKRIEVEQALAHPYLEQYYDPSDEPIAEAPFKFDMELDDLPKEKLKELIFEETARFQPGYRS", "format": "functional"}, "[5]": {"target": "Serine/threonine-protein kinase PLK4 (Homo sapiens, UniProt O00444)", "sequence (O00444 whole entry)": "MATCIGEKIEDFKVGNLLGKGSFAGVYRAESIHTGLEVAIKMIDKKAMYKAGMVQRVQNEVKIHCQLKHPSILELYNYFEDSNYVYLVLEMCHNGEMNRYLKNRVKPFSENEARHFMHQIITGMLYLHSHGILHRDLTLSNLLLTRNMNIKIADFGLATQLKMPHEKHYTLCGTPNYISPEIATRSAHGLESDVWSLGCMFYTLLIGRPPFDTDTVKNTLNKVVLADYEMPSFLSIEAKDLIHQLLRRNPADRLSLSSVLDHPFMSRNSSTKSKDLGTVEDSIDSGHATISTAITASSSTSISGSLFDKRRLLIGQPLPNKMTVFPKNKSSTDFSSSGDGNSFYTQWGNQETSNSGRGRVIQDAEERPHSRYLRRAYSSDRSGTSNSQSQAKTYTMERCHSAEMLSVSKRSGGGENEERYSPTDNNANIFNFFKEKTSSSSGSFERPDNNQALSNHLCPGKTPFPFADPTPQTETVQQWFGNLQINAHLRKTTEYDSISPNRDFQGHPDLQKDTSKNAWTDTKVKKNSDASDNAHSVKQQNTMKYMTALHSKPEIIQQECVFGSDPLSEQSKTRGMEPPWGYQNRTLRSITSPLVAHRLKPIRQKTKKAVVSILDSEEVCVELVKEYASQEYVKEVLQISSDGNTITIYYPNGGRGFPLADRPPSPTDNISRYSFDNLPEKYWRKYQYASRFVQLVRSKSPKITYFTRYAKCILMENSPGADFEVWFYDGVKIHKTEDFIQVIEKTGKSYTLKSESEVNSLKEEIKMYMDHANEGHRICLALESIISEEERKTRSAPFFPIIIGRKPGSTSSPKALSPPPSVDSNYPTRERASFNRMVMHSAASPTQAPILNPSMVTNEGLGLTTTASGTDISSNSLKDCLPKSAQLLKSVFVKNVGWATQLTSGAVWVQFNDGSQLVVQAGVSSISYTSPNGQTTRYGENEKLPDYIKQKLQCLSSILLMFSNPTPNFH", "format": "functional"}, "[6]": {"target": "MAP kinase-activated protein kinase 3 (Homo sapiens, UniProt Q16644)", "format": "functional"}, "[7]": {"target": "3-phosphoinositide-dependent protein kinase 1 (Homo sapiens, UniProt O15530)", "format": "functional"}, "[8]": {"target": "Cyclin-dependent kinase 7 (Homo sapiens, UniProt P50613)", "sequence (P50613 whole entry)": "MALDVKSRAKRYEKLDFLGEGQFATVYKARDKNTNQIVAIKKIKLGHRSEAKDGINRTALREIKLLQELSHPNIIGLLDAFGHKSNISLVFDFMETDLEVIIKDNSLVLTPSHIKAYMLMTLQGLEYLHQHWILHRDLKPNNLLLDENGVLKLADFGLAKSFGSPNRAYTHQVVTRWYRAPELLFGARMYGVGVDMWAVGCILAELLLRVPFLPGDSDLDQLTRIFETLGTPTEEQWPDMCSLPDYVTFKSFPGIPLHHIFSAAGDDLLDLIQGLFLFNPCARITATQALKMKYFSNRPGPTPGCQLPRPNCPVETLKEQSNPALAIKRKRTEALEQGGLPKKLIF", "format": "functional"}, "[9]": {"target": "Mitogen-activated protein kinase kinase kinase kinase 4 (Homo sapiens, UniProt O95819)", "sequence (O95819 whole entry)": "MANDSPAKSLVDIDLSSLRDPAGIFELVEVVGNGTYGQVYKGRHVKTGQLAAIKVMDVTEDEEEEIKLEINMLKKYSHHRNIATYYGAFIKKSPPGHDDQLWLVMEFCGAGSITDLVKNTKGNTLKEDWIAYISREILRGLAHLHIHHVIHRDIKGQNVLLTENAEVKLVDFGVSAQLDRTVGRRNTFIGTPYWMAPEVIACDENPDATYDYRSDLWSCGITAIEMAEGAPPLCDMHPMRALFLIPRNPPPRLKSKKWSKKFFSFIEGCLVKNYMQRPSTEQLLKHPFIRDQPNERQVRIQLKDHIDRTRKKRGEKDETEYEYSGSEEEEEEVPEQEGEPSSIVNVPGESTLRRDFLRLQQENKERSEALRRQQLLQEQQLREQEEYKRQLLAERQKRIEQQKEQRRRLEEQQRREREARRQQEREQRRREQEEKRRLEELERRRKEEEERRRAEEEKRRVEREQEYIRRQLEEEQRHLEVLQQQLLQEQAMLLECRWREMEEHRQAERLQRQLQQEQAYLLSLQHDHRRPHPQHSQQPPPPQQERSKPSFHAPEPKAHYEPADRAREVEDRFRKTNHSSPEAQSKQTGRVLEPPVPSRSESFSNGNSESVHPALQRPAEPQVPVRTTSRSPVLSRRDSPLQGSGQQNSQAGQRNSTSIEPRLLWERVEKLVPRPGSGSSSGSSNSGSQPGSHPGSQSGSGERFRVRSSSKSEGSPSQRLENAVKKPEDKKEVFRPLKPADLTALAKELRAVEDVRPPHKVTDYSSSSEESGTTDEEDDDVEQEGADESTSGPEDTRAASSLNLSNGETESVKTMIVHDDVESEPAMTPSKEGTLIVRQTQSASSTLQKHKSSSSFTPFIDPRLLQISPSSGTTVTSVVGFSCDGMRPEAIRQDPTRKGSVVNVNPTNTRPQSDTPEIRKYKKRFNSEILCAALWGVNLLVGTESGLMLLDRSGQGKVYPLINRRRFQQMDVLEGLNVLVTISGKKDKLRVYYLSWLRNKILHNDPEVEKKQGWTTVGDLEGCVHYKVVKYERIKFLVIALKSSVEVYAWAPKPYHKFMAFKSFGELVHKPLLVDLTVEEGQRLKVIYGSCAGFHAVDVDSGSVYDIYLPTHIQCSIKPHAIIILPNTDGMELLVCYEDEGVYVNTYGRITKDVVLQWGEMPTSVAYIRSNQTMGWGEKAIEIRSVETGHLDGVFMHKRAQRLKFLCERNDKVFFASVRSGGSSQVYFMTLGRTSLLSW", "format": "functional"}, "[10]": {"target": "Leucine-rich repeat serine/threonine-protein kinase 2 (Homo sapiens, UniProt Q5S007)", "format": "functional"}, "[11]": {"target": "Dual specificity mitogen-activated protein kinase kinase 1 (Homo sapiens, UniProt Q02750)", "sequence (Q02750 whole entry)": "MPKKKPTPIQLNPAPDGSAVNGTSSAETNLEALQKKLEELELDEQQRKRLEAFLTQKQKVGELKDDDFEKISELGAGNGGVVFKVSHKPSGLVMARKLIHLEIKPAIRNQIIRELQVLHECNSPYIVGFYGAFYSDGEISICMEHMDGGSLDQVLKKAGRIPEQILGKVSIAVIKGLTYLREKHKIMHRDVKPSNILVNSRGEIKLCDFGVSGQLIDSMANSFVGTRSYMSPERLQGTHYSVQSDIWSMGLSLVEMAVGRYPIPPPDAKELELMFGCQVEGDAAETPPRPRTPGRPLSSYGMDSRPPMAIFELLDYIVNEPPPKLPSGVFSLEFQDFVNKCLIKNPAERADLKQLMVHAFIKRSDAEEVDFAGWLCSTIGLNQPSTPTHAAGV", "assay": "Navigating the Kinome. Panel member name: MAP2K1", "format": "functional"}}, "note": "Activity calls are given as the source filed them.", "data": [{"molecule": "O=C(O)c1[nH]c2ccccc2c1C(c1cc(Cl)cc([N+](=O)[O-])c1O)c1c(C(=O)O)[nH]c2ccccc12", "values": [{"measurement": "IC50", "setting": "Genome polyprotein", "result": "9.77 µM (active)"}, {"measurement": "IC50", "setting": "[1]", "result": "> 122 µM (inactive)"}, {"measurement": "AC50", "setting": "[2]", "result": "7.15 µM (active)"}]}, {"molecule": "CCOC(=O)c1cn(-c2ccc(O)cc2C)c2cc(-c3ccncc3)ccc2c1=O", "values": [{"measurement": "Ki", "setting": "[3]", "result": "> 5.01 µM (inactive)"}, {"measurement": "Ki", "setting": "[4]", "result": "> 7.94 µM (inactive)"}, {"measurement": "Ki", "setting": "[5]", "result": "> 3.98 µM (inactive)"}, {"measurement": "Ki", "setting": "[6]", "result": "> 10 µM (inactive)"}, {"measurement": "Ki", "setting": "[7]", "result": "> 3.98 µM (inactive)"}]}, {"molecule": "Cc1cc(=O)[nH]nc1-c1ccc(NC(=O)Nc2cc(C(F)(F)F)ccc2F)c(Cl)c1", "values": [{"measurement": "Ki", "setting": "[8]", "result": "> 3.98 µM (inactive)"}, {"measurement": "Ki", "setting": "[9]", "result": "> 5.01 µM (inactive)"}, {"measurement": "Ki", "setting": "[10]", "result": "> 2.51 µM (inactive)"}, {"measurement": "Ki", "setting": "[11]", "result": "> 3.16 µM (inactive)"}]}]}
